Laboratory results published in patent US20230123135A1 (priority 2020, published 2023).
Entries after “also recorded” stand apart in the source; their conditions may differ. Like-named read-outs stand apart in the source and are kept apart here.

Tests used:
[1] = system: IL-6; experiment: animal or person; assay type: in vivo, Mus musculus (BALB/c); conditions: for inhibition of IL-6 production (%) at 3 mg/kg: Mus musculus, read-out: inhibitory rate of IL-6 production (negative control as 100%)
[2] = system: TNF-α; experiment: animal or person; assay type: in vivo, Mus musculus (BALB/c); set-up: TNF-α production in BALF: unit not given here; conditions: for inhibition of TNF-α production at 3 mg/kg: Mus musculus, read-out: inhibitory rate of TNF-α production (negative control as 100%)
[3] = system: IL-1β; experiment: animal or person; assay type: in vivo, Mus musculus (BALB/c); conditions: for Inhibition rate of IL-1β production (%) at 3 mg/kg: Mus musculus, read-out: inhibitory rate of IL-1β production (negative control as 100%); for IL-1 beta Mean AUC (baseline-adjusted): mouse, in vivo
[4] = system: primary rat peritoneal macrophages
[5] = system: SARS-CoV-2; experiment: microbe, parasite or virus in culture; assay type: cell-based; conditions: for IC50: read-out: IC50, inhibition of SARS-CoV-2 infection
[6] = in vitro; conditions: African green monkey
[7] = system: primary rat peritoneal macrophages; remark: listed apart in the source
[8] = system: IL-6; assay type: cell-based, rat
[9] = system: IL-1β; assay type: cell-based, mouse
[10] = system: IL-1β; assay type: cell-based, rat
[11] = system: IκB; experiment: Western blot, IκB degradation in RAW264.7 macrophages; assay type: cell-based, mouse; conditions: 2.5-10 μM 30 min pretreatment, LPS 1 μg/mL 15 min
[12] = system: SARS-CoV-2 infection; set-up: species or system person; conditions: in vivo
[13] = system: Vero cells
[14] = system: human telomerase; conditions: cited from earlier work
[15] = system: PGE2 production; assay type: cell-based, mouse
[16] = system: iNOS mRNA; assay type: cell-based, mouse
[17] = in vivo
[18] = system: IL-1β mRNA; assay type: cell-based, mouse
[19] = system: NF-κB transcriptional activity; assay type: cell-based, mouse
[20] = system: iNOS; assay type: cell-based, mouse
[21] = system: IFN-β mRNA; assay type: cell-based, mouse
[22] = system: COX-2 mRNA; assay type: cell-based, mouse
[23] = system: TNF-α mRNA; assay type: cell-based, mouse
[24] = system: COX-2; assay type: cell-based, mouse
[25] = system: TNF-α; assay type: cell-based, mouse
[26] = system: NF-κB; experiment: Western blot, NF-κB (p50, p65) protein in RAW264.7 macrophages; assay type: cell-based, mouse; conditions: 2.5-10 μM 30 min pretreatment, LPS 1 μg/mL 15 min
[27] = system: TNF-α; assay type: cell-based, rat; conditions: 24 h, LPS 100 ng/mL; read-out: IC50, secretion of TNF-α
[28] = system: NO production; assay type: cell-based, mouse; conditions: read-out: IC50 for inhibition of NO production
[29] = Severe acute respiratory syndrome coronavirus 2, Vero, 24 h
[30] = 3 μM, in the absence of significant cell death

With C[C@@H]1C[C@H]2[C@@H]3CCC4=CC(=O)C=C[C@]4(C)[C@@]3(F)[C@@H](O)C[C@]2(C)[C@@]1(O)C(=O)CO [Dexamethasone] the inhibition of IL-6 production (%) at 3 mg/kg ([1]; 1 h) was 59%, the inhibition of IL-6 production (%) at 3 mg/kg ([1]; 2 h) was 43% and the inhibition of IL-6 production (%) at 3 mg/kg ([1]; 4 h) was 59%. The inhibition of IL-6 production (%) at 3 mg/kg ([1]; 6 h) was 20%, the inhibition of IL-6 production (%) at 3 mg/kg ([1]; 12 h) was 16% and the inhibition of IL-6 production (%) at 3 mg/kg ([1]; 24 h) was 51%. The “IL-6 Mean AUC (baseline-adjusted)” value ([1]; mouse, in vivo) was 54684.9 pg·h/mL, the inhibition of TNF-α production at 3 mg/kg ([2]; 1 h) was 25% and the inhibition of TNF-α production at 3 mg/kg ([2]; 2 h) was 28%. For the same molecule, the inhibition of TNF-α production at 3 mg/kg ([2]; 4 h) was 33%, the inhibition of TNF-α production at 3 mg/kg ([2]; 6 h) was 28% and the inhibition of TNF-α production at 3 mg/kg ([2]; 12 h) was 9%. The “TNF-alpha Mean AUC (baseline-adjusted)” value ([2]; mouse, in vivo) was 2815.4 pg·h/mL, the Inhibition rate of IL-1β production (%) at 3 mg/kg ([3]; 4 h) was 69% and the Inhibition rate of IL-1β production (%) at 3 mg/kg ([3]; 6 h) was 67%. The Inhibition rate of IL-1β production (%) at 3 mg/kg ([3]; 12 h) was 77% and the “IL-1 beta Mean AUC (baseline-adjusted)” value [3] was 2637.5 pg·h/mL.

For C[C@@H]1CC[C@@]2(OC1)O[C@H]1[C@@H](O)[C@H]3[C@@H]4CC[C@H]5C[C@@H](O[C@@H]6O[C@H](CO)[C@H](O[C@@H]7O[C@H](CO)[C@@H](O)[C@H](O[C@@H]8OC[C@@H](O)[C@H](O)[C@H]8O)[C@H]7O[C@@H]7O[C@H](CO)[C@H](O)[C@H](O[C@@H]8O[C@H](CO)[C@@H](O)[C@H](O)[C@H]8O)[C@H]7O)[C@H](O)[C@H]6O)[C@H](O)C[C@]5(C)[C@H]4CC[C@]3(C)[C@H]1[C@@H]2C [Digitonin, reference compound], the “cytotoxicity (CytoTox-GLO) compared with vehicle” value [4] was “high toxicity”.

For Cc1cccc(C)c1OCC(=O)N[C@@H](Cc1ccccc1)[C@@H](O)C[C@H](Cc1ccccc1)NC(=O)[C@H](C(C)C)N1CCCNC1=O [lopinavir], the “Selectivity index (SI), CC50/IC50” value [5] was 3.81, the IC50 [5, 29] was 13.1 µM and the CC50 [6] was greater than 50 µM.

Work on CCC(CC)COC(=O)[C@H](C)N[P@](=O)(OC[C@H]1O[C@@](C#N)(c2ccc3c(N)ncnn23)[C@H](O)[C@@H]1O)Oc1ccccc1 [remdesivir] yielded an IC50 [5, 29] of 5.27 µM and a CC50 [6] greater than 50 µM.

For Triton-X [reference compound], the “cell viability (MTT) compared with vehicle” value [7] was “low cell viability”.

In the case of sodium meta-arsenite [SMA], the “secretion of IL-6” value [8, 30] is reported as “complete inhibition”, the IC50 ([8]; 24 h, LPS 100 ng/mL, read-out: IC50, secretion of IL-6) is reported as 0.5 µM and the IL-1β protein expression [9] is reported as “significantly inhibited”. The “secretion of IL-1β” value [10, 30] was “complete inhibition”, the IC50 ([10]; 24 h, LPS 100 ng/mL, read-out: IC50, secretion of IL-1β) was 0.8 µM and the IκB degradation [11] was “markedly inhibited”. For the same molecule, the “inhibitory rate of IL-6 production (negative control as 100%)” value ([1]; mouse, in vivo) was 60%, the “IL-6 Mean AUC (baseline-adjusted)” value ([1]; mouse, in vivo, 1.03 mg/kg) was 165404.0 pg·h/mL and the “IL-6 Mean AUC (baseline-adjusted)” value ([1]; mouse, in vivo, 1.54 mg/kg) was 128034.8 pg·h/mL. The “IL-6 Mean AUC (baseline-adjusted)” value ([1]; mouse, in vivo, 2.05 mg/kg) was 78963.1 pg·h/mL, the “TNF-α production in BALF” value ([2]; mouse, in vivo) was 794 and the “TNF-alpha Mean AUC (baseline-adjusted)” value ([2]; mouse, in vivo, 1.03 mg/kg) was 7984.4 pg·h/mL. The “TNF-alpha Mean AUC (baseline-adjusted)” value ([2]; mouse, in vivo, 1.54 mg/kg) was 6064.8 pg·h/mL, the “TNF-alpha Mean AUC (baseline-adjusted)” value ([2]; mouse, in vivo, 2.05 mg/kg) was 4215.8 pg·h/mL and the “symptoms of SARS-CoV-2 infection after taking SMA” value [12] was “effective in alleviating or treating the symptoms of SARS-CoV-2 infection; also recorded: Chest tightness and pain relieved; also recorded: Temporary relief of symptoms”. For the same molecule, the CC50 [13] was 21.1 µM, the “cytotoxicity (CytoTox-GLO) compared with vehicle” value ([4]; 24 h, LPS 100 ng/mL) was “concentration-dependent increase in cytotoxicity” and the “inhibition of human telomerase” value [14] was “potent inhibitor”. The “inhibition of PGE2 production” value [15] was 20%, the “iNOS mRNA expression” value [16] was “significantly inhibited” and the IC50 [5] was 4.25 µM. The “time until fully metabolised and excreted from the body after taking it” value [17] was 72 h, the “IL-1 beta Mean AUC (baseline-adjusted)” value ([3]; 1.03 mg/kg) was 4272.9 pg·h/mL and the “IL-1 beta Mean AUC (baseline-adjusted)” value ([3]; 1.54 mg/kg) was 3738.3 pg·h/mL. The “IL-1 beta Mean AUC (baseline-adjusted)” value ([3]; 2.05 mg/kg) was 3045.8 pg·h/mL, the “expression of IL-1β mRNA” value [18] was “no effect” and the “cell viability (MTT) compared with vehicle” value ([7]; 24 h, LPS 100 ng/mL) was “concentration-dependent decrease in viability”. For the same molecule, the IC50 ([7]; read-out: IC50 for cell viability, 24 h, LPS 100 ng/mL, MTT) was 5.7 µM, the “LPS-induced SEAP expression (NF-κB transcriptional activity)” value [19] was “inhibited LPS-induced SEAP expression significantly” and the iNOS protein expression [20] was “significantly inhibited”. The “expression of IFN-β mRNA” value [21] was “no effect”, the “COX-2 mRNA expression” value [22] was “not influenced” and the “mRNA level of TNF-α” value [23] was “significantly decreased”. The COX-2 protein expression [24] was “slightly inhibited”, the TNF-α protein expression [25] was “significantly inhibited” and the NF-κB protein level [26] was “markedly decreased”. The IC50 [27] was 2.3 µM and the IC50 [28] was roughly 2.87 µM.
